Source: patent publication US9193699B2, “Apoptosis inducing compounds” (INSTITUT NATIONAL DE LA SANTE ET DE LA RECHERCHE MEDICALE …, priority 2011, dated 2015)

Tests used:
Assay type in all cases: cell-based
[1] = system: Human normal mammary epithelial HME-1 cells; assay: Effect on growth of normal cells (alamar blue), HME-1; details: HME1, calculated on the basis of cell growth inhibition
Protocol: (§1) All biological experiments (Examples 2 to 9) have been performed with recommended cell line specific culture medium. For SUM149 and L226, culture medium is supplemented with 10% Fetal Calf Serum. For HME-1 and MCF-10A, culture medium is supplemented with 5% Horse Serum.
(§2) Human normal mammary epithelial HME-1 cells were plated in a 96 well plate at 3000 cells/100 μL at 37° C. in 5% CO2. Serial dilutions of drugs (compounds 1, 3 or 4) ranging from 20 μM to 300 nM were added at day 0 and day 3. The number of viable cells was determined in triplicate at day 5 by incubating 10 μL of the alamar blue staining solution for 2 hours at 37° C. (FIG. 4).
(§3) IC50 values of compounds 1-14 for the inhibition of MCF-10A and HME-1 normal cells growth were also measured (according to the experimental procedure of Examples 4 and 5): […]

[2] = system: caspase-3 and caspase-7 in HME-1 cells; assay: Caspase 3/7 activation (Caspase-Glo 3/7) in HME-1 normal cells; details: Homo sapiens, HME1, R=RLU at 20 μM/RLU at 0 μM, 24 h, read-out: Caspase 3/7 activation R (RLU fold increase from untreated cells)
Protocol: (§4) Human normal mammary epithelial HME-1 cells were plated in a 96 well plate at 10000 cells/100 μL at 37° C. in 5% CO2. Serial dilutions of drugs (compounds 1, 3 or 4) ranging from 20 μM to 300 nM were added at day 0. Active caspase-3 and caspase-7 were measured in triplicate after 24 h treatment by incubating 50 μL of the Caspase-Glo 3/7 reagent for 60 min at 25° C. This reagent containing the proluminescent tetrapeptide sequence DEVD in a cell lysis buffer (Promega) (FIG. 8).
(§5) The calculated values R correspond to Relative Luminescence Units (RLU) fold increase from untreated cells (R=RLU at 20 μM/RLU at 0 μM).
(§6) Caspase 3/7 activation in MCF-10A and HME-1 normal cells was also measured.

[3] = system: Human normal mammary epithelial MCF-10A cells; assay: Effect on growth of normal cells (alamar blue), MCF-10A; details: calculated on the basis of cell growth inhibition
Protocol: as §1
as §2, with “MCF-10A” for “HME-1”, “5).” for “4).”
as §3

[4] = system: Human breast tumor SUM149 cells; assay: Inhibition of tumor cell growth (alamar blue), SUM149; details: 120 h, calculated on the basis of cell growth inhibition, day 5, alamar blue, read-out: IC50 for the inhibition of SUM149 tumor cells growth
Protocol: as §1
Human breast tumor SUM149 cells (Inflammatory Breast Cancer (IBC) of basal subtype) were plated in a 96 well plate at 3000 cells/100 μL at 37° C. in 5% CO2. Compounds 1, 3, 4, 5, 6, 7, 8, 9, 10, 11, 12, 13, 14 at 10 μM were added at day 0 and day 3. The number of viable cells was determined in triplicate at day 5 by incubating 10 μL of the alamar blue staining solution for 2 hours at 37° C. (FIG. 1).
as §2, with “breast tumor SUM149” for “normal mammary epithelial HME-1”, “2).” for “4).”
IC50 values of compounds 1-14 for the inhibition of SUM149 and L226 tumor cells growth were measured (according to the experimental procedure of Examples 2 and 3):
Human breast tumor SUM149 cells were plated in a 96 well plate at 3000 cells/100 μL at 37° C. in 5% CO2 in recommended medium containing 10% FCS or in synthetic medium without FCS. Serial dilutions of drug (compound 4) ranging from 10 μM to 0.16 μM were added at day 0 and day 3. The number of viable cells was determined in triplicate at day 5 by incubating 10 μL of the alamar blue staining solution for 2 hours at 37° C. (FIG. 11). The […] in recommended medium containing 10% FCS was measured at 2 μM, while it was measured at 0.6 μM without FCS.

[5] = system: caspase-3 and caspase-7 in SUM149 cells; assay: Caspase 3/7 activation (Caspase-Glo 3/7) in SUM149 tumor cells; details: Homo sapiens, R=RLU at 20 μM/RLU at 0 μM, 24 h, read-out: Caspase 3/7 activation R (RLU fold increase from untreated cells)
Protocol: as §4, with “breast tumor SUM149” for “normal mammary epithelial HME-1”, “6).” for “8).”
(§7) Caspase 3/7 activation in SUM149 and L226 tumor cells was measured.
as §5

[6] = system: caspase-3 and caspase-7 in MCF-10A cells; assay: Caspase 3/7 activation (Caspase-Glo 3/7) in MCF-10A normal cells; details: Homo sapiens, R=RLU at 20 μM/RLU at 0 μM, 24 h, read-out: Caspase 3/7 activation R (RLU fold increase from untreated cells)
Protocol: as §4, with “MCF-10A” for “HME-1”, “9).” for “8).”
as §5, §6

[7] = system: caspase-3 and caspase-7 in L226 cells; assay: Caspase 3/7 activation (Caspase-Glo 3/7) in L226 tumor cells; details: Homo sapiens, R=RLU at 20 μM/RLU at 0 μM, 24 h, read-out: Caspase 3/7 activation R (RLU fold increase from untreated cells)
Protocol: as §4, with “breast tumor L226” for “normal mammary epithelial HME-1”, “7).” for “8).”
as §7, §5

[8] = system: Human breast tumor L226 cells; assay: Inhibition of tumor cell growth (alamar blue), L226; details: 120 h, calculated on the basis of cell growth inhibition, day 5, alamar blue
Protocol: as §1
Human breast tumor L226 cells (Inflammatory Breast Cancer (IBC) of ERB-B2 subtype) were plated in a 96 well plate at 3000 cells/100 μL at 37° C. in 5% CO2. Serial dilutions of drugs (compounds 1, 3 or 4) ranging from 20 μM to 300 nM were added at day 0 and day 3. The number of viable cells was determined in triplicate at day 5 by incubating 10 μL of the alamar blue staining solution for 2 hours at 37° C. (FIG. 3).
IC50 values of compounds 1-14 for the inhibition of SUM149 and L226 tumor cells growth were measured (according to the experimental procedure of Examples 2 and 3): […]

Cancer stem cells (CSCs) = assay: Aldefluor assay of cancer stem cells (ALDH+ cells), FACS; details: FIG. 12B
Protocol: Cancer stem cells (CSCs) are thought to contribute to tumor initiation, maintenance, resistance to therapy, and metastasis progression. Treatment with drugs enrich in resistant CSCs. In vitro, breast CSCs express high level of aldehyde dehydrogenase-1 (ALDH1), which can be detected by using a commercial assay (CSCs are “Aldefluor” positive). Briefly, cells were incubated in Aldefluor assay buffer containing ALDH substrate (BAAA (BODIPY®—aminoacetaldehyde), 1 μmol/L per 1×10^6 cells). Negative control was done in the presence of diethylaminobenzaldehyde (DEAB), a specific ALDH inhibitor. Cells were then incubated for 40 min at 37° C. Cells were analyzed with the LSRII flow cytometer (Becton-Dickinson). PI (Propidium Iodide) exclusion was used to gate viable cells.

| Compound | IC50 [1] | fold induction at 20 µM [2] | IC50 [3] | IC50 [4] | fold induction at 20 µM [5] | fold induction at 20 µM [6] | fold induction at 20 µM [7] | IC50 [8] | aldefluor ratio (percent ALDH+ cells treated vs DMSO) (Cancer stem cells (CSCs)) |
| --- | --- | --- | --- | --- | --- | --- | --- | --- | --- |
| CC1(C)SCCN(S(=O)(=O)c2ccc(C(F)(F)F)cc2)[C@H]1C(=O)NO [Compound 6, (3S)—N-hydroxy-4-[(4-trifluoromethylphenyl)sulfonyl]-2,2-dimethyl-3-thiomorpholine carboxamide] | > 20 µM | 0.9 | > 20 µM | 2.5 µM | 5.9 | 1 | 2.8 | 5 µM | – |
| CC1(C)SCCN(S(=O)(=O)c2ccccc2)[C@H]1C(=O)NO [Compound 1, (3S)—N-hydroxy-4-(benzenesulfonyl)-2,2-dimethyl-3-thiomorpholine carboxamide] | > 20 µM | 1 | > 20 µM | 20 µM | 1 | 1 | 1 | > 20 µM | – |
| Cc1cc(C)cc(S(=O)(=O)N2CCSC(C)(C)[C@@H]2C(=O)NO)c1 [Compound 14, (3S)—N-hydroxy-4-[(3,5-dimethylphenyl)sulfonyl]-2,2-dimethyl-3-thiomorpholine carboxamide] | – | 1.1 | – | 5 µM | – | 1.1 | – | – | – |
| CCCCCCCCCCCCc1ccc(S(=O)(=O)N2CCSC(C)(C)C2C(=O)NO)cc1 [Compound 10, (3S)—N-hydroxy-4-[(4-dodecyl)phenylsulfonyl]-2,2-di methyl-3-thiomorpholine carboxamide] | > 20 µM | 0.8 | 20 µM | 2.5 µM | 5.5 | 1.1 | 8.9 | 3.5 µM | – |
| COc1cccc2c1C(=O)c1c(O)c3c(c(O)c1C2=O)C[C@@](O)(C(=O)CO)C[C@@H]3O[C@H]1C[C@H](N)[C@H](O)[C@H](C)O1 [doxorubicin, reference compound] | – | – | – | – | – | – | – | – | increases it |
| CC1(C)SCCN(S(=O)(=O)CC(c2ccccc2)c2ccccc2)[C@H]1C(=O)NO [Compound 9] | – | – | – | 10 µM | – | – | – | – | – |
| CCCc1ccc(S(=O)(=O)N2CCSC(C)(C)[C@@H]2C(=O)NO)cc1 [Compound 13, (3S)—N-hydroxy-4-[(4-propylphenyl)sulfonyl]-2,2-dimethyl-3-thiomorpholine carboxamide] | > 20 µM | 1.2 | > 20 µM | 2.5 µM | 5.4 | 1.1 | 5.8 | 2.5 µM | – |
| CC1(C)SCCN(S(=O)(=O)c2ccc(CBr)cc2)[C@H]1C(=O)NO [Compound 5, (3S)—N-hydroxy-4-[(4-bromomethylphenyl)sulfonyl]-2,2-dimethyl-3-thiomorpholine carboxamide] | > 20 µM | 1.1 | > 20 µM | 2.5 µM | 5.5 | 1 | 3.2 | 20 µM | – |
| CC1(C)SCCN(S(=O)(=O)c2ccc(F)cc2)[C@H]1C(=O)NO [Compound 7, (3S)—N-hydroxy-4-[(4-fluorophenyl)sulfonyl]-2,2-dimethyl-3-thiomorpholine carboxamide] | – | – | – | 20 µM | – | – | – | – | – |
| Cc1cc(C)c(S(=O)(=O)N2CCSC(C)(C)[C@@H]2C(=O)NO)c(C)c1 [Compound 11, (3S)—N-hydroxy-4-[(2,4,6-trimethylphenyl)sulfonyl]-2,2-dimethyl-3-thiomorpholine carboxamide] | > 20 µM | – | 20 µM | 2.5 µM | 6.4 | – | 8.7 | 2.5 µM | – |
